Experimental data: patent US7501430B2 (ArQule, Inc., priority 2006, dated 2009)

Biological target: T1, mutant B-RAF (Homo sapiens, UniProt P15056, V600E)
T1 construct: purchased Upstate (Charlottesville, Va.)
Test: RAF biochemical assay (MEK-1 phosphorylation, anti-phospho MEK1/2 detection)
Conditions: for IC50: read-out: Mutant B-RAF IC50; for inhibition at 10 µM: read-out: Mutant B-RAF % inhibition
Method in brief: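 Detection is by ELISA: after a 30 min room-temperature reaction, plate-captured GST-MEK-1 is probed with anti-phospho MEK1/2, then an AP-tagged secondary antibody with fluorescent Attophos read-out.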

T1 sequence (P15056 whole entry V600E): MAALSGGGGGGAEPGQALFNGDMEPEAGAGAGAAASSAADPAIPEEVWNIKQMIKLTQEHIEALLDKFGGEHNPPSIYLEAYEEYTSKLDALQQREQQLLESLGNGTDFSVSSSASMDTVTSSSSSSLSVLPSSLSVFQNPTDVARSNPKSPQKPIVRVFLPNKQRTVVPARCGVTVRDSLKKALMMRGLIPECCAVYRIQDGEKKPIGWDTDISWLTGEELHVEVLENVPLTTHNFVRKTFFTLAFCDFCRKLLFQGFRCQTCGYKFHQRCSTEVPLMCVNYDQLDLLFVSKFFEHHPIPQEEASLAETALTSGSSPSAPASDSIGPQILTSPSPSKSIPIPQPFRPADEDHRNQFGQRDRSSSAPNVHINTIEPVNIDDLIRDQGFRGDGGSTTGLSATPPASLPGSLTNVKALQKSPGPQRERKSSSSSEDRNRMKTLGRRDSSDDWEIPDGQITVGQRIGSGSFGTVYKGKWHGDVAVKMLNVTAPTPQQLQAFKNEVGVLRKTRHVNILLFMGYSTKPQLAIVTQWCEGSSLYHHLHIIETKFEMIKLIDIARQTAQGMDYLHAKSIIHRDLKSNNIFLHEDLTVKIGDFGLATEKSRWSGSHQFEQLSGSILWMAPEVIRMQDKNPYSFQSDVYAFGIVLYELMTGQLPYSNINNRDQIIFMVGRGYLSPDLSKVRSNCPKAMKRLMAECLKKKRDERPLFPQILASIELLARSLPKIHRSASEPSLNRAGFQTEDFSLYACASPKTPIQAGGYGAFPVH

SMILES	IC50 [nM]	inhibition at 10 µM [%]
O=C(O)CCc1ccc(S(=O)(=O)N2CCC(Nc3nccc(-c4c(-c5cccc(O)c5)nc5sccn45)n3)CC2)cc1 [Example 273, 3-(4-{[4-({4-[6-(3-hydroxyphenyl)imidazo[2,1-b][1,3]thiazol-5-yl]pyrimidin-2-yl}amino)piperidin-1-yl]sulfonyl}phenyl)propanoic acid]	10	–
O=[N+]([O-])c1ccccc1-c1nc2sccn2c1-c1ccnc(NC2CCN(S(=O)(=O)c3ccc(Cl)cc3)CC2)n1 [Example 274, N-{1-((4-chlorophenyl)sulfonyl]piperidin-4-yl}-4-[6-(2-nitrophenyl)imidazo[2,1-b][1,3]thiazol-5-yl]pyrimidin-2-amine]	722	–
Fc1ccc(-c2nc3sccn3c2-c2ccnc(N[C@H]3CCNC3)n2)cc1 [Example 275, 4-[6-(4-fluorophenyl)imidazo[2,1-b][1,3]thiazol-5-yl]-N-[(3S)-pyrrolidin-3-yl]pyrimidin-2-amine]	–	30
O=S(=O)(c1ccc(Cl)cc1)N1CC[C@H](Nc2nccc(-c3c(-c4ccc(F)cc4)nc4sccn34)n2)C1 [Example 276, N-{(3S)-1-[(4-chlorophenyl)sulfonyl]pyrrolidin-3-yl}-4-[6-(4-fluorophenyl)imidazo[2,1-b][1,3]thiazol-5-yl]pyrimidin-2-amine]	–	95
Fc1ccc(-c2nc3sccn3c2-c2ccnc(N[C@@H]3CCNC3)n2)cc1 [Example 277, 4-[6-(4-fluorophenyl)imidazo[2,1-b][1,3]thiazol-5-yl]-N-[(3R)-pyrrolidin-3-yl]pyrimidin-2-amine]	44	–
O=S(=O)(c1ccc(Cl)cc1)N1CC[C@@H](Nc2nccc(-c3c(-c4ccc(F)cc4)nc4sccn34)n2)C1 [Example 278, N-{(3R)-1-[(4-chlorophenyl)sulfonyl]pyrro-lidin-3-yl}-4-[6-(4-fluorophenyl)imidazo[2,1-b][1,3]thiazol-5-yl]pyrimidin-2-amine]	–	10
COc1cccc(-c2nc3sccn3c2-c2ccnc(N[C@@H]3CCNC3)n2)c1 [Example 279, 4-[6-(3-methoxyphenyl)imidazo[2,1-b][1,3]thiazol-5-yl]-N-[(3R)-pyrrolidin-3-yl]pyrimidin-2-amine]	–	36
COc1cccc(-c2nc3sccn3c2-c2ccnc(N[C@@H]3CCN(S(=O)(=O)c4ccc(Cl)cc4)C3)n2)c1 [Example 280, N-{(3R)-1-[(4-chlorophenyl)sulfonyl]pyrro-lidin-3-yl}-4-[6-(3-methoxyphenyl)imidazo[2,1-b][1,3]thiazol-5-yl]pyrimidin-2-amine]	–	37
COc1cccc(-c2nc3sccn3c2-c2ccnc(N[C@@H]3CCN(S(=O)(=O)c4ccc(C(=O)O)cc4)C3)n2)c1 [Example 281, 4-{[(3R)-3-({4-[6-(3-methoxyphenyl)imidazo[2,1-b][1,3]thiazol-5-yl]pyrimidin-2-yl}amino)pyrrolidin-1-yl]sulfonyl)benzoic acid]	> 3000	–
O=C(O)c1ccc(S(=O)(=O)N2CC[C@@H](Nc3nccc(-c4c(-c5cccc(O)c5)nc5sccn45)n3)C2)cc1 [Example 282, 4-{[(3R)-3-({4-[6-(3-hydroxyphenyl)imidazo[2,1-b][1,3]thiazol-5-yl]pyrimidin-2-yl}amino)pyrrolidin-1-yl]sulfonyl}benzoic acid]	522	–
O=S(=O)(c1ccc(Cl)cc1)N1CC[C@@H](Nc2nccc(-c3c(-c4cccc(O)c4)nc4sccn34)n2)C1 [Example 283, 3-{5-[2-({(3R)-1-[(4-chlorophenyl)sulfonyl]pyrro-lidin-3-yl}amino)pyrimidin-4-yl]imidazo[2,1-b][1,3]thiazol-6-yl}phenol]	1600	–
N#Cc1cccc(-c2nc3sccn3c2-c2ccnc(N[C@@H]3CCNC3)n2)c1 [Example 284, 3-(5-{2-[(3R)-pyrrolidin-3-ylamino]pyrimidin-4-yl}imidazo[2,1-b][1,3]thiazol-6-yl)benzonitrile]	–	61
N#Cc1cccc(-c2nc3sccn3c2-c2ccnc(N[C@@H]3CCN(S(=O)(=O)c4ccc(Cl)cc4)C3)n2)c1 [Example 285, 3-{5-[2-({(3R)-1-[(4-chlorophenyl)sulfonyl]pyrrolidin-3-yl}amino)pyrimidin-4-yl]imidazo[2,1-b][1,3]thiazol-6-yl}benzonitrile]	–	35
Fc1ccc(-c2nc3sccn3c2-c2ccnc(NC3CNC3)n2)cc1 [Example 287, N-azetidin-3-yl-4-[6-(4-fluorophenyl)imidazo[2,1-b][1,3]thiazol-5-yl]pyrimidin-2-amine]	2490	–
O=S(=O)(c1ccc(Cl)cc1)N1CCC[C@@H](Nc2nccc(-c3c(-c4cccc(O)c4)nc4sccn34)n2)C1 [Example 288, 3-{5-[2-({(3R)-1-[(4-chlorophenyl)sulfonyl]piperidin-3-yl}amino)pyrimidin-4-yl]imidazo[2,1-b][1,3]thiazol-6-yl}phenol]	2	–
CC(=O)N1CCC(Nc2nccc(-c3c(-c4ccc(F)cc4)nc4sccn34)n2)CC1 [Example 291, N-(1-acetylpiperidin-4-yl)-4-[6-(4-fluorophenyl)imidazo[2,1-b][1,3]thiazol-5-yl]pyrimidin-2-amine]	–	41
Fc1ccc(CN2CCC(Nc3nccc(-c4c(-c5ccc(F)cc5)nc5sccn45)n3)CC2)cc1 [Example 293, N-[1-(4-fluorobenzyl)piperidin-4-yl]-4-[6-(4-fluorophenyl)imidazo[2,1-b][1,3]thiazol-5-yl]pyrimidin-2-amine]	–	14

SMILES	IC50 [nM]	inhibition at 10 µM [%]
CCNC(=O)N1CCC(Nc2nccc(-c3c(-c4ccc(F)cc4)nc4sccn34)n2)CC1 [Example 294, N-ethyl-4-({4-[6-(4-fluorophenyl)imidazo[2,1-b][1,3]thiazol-5-yl]pyrimidin-2-yl}amino)piperidine-1-carboxamide]	41	–
O=C(Nc1ccc(F)cc1)N1CCC(Nc2nccc(-c3c(-c4ccc(F)cc4)nc4sccn34)n2)CC1 [Example 295, N-(4-fluorophenyl)-4-({4-[6-(4-fluorophenyl)imidazo[2,1-b][1,3]thiazol-5-yl]pyrimidin-2-yl}amino)piperidine-1-carboxamide]	–	49
CS(=O)(=O)N1CCC(Nc2nccc(-c3c(-c4ccc(F)cc4)nc4occn34)n2)CC1 [Example 299, 4-[6-(4-fluorophenyl)imidazo[2,1-b][1,3]oxazol-5-yl]-N-[1-(methylsulfonyl)piperidin-4-yl]pyrimidin-2-amine]	–	55
Fc1ccc(-c2nc3occn3c2-c2ccnc(NC3CCNCC3)n2)c(F)c1 [Example 300, 4-[6-(2,4-difluorophenyl)imidazo[2,1-b][1,3]oxazol-5-yl]-N-piperidin-4-ylpyrimidin-2-amine]	–	65
Fc1ccc(-c2nc3occn3c2-c2ccnc(NC3CCNCC3)n2)c(Cl)c1 [Example 301, 4-[6-(2-chloro-4-fluorophenyl)imidazo[2,1-b][1,3]oxazol-5-yl]-N-piperidin-4-ylpyrimidin-2-amine]	–	39
CC(=O)N1CCC(Nc2nccc(-c3c(-c4ccccc4Cl)nc4occn34)n2)CC1 [Example 302, N-(1-acetylpiperidin-4-yl)-4-[6-(2-chlorophenyl)imidazo[2,1-b][1,3]oxazol-5-yl]pyrimidin-2-amine]	–	39
CC(=O)N1CCC(Nc2nccc(-c3c(-c4ccccc4C)nc4occn34)n2)CC1 [Example 303, N-(1-acetylpiperidin-4-yl)-4-[6-(2-methylphenyl)imidazo[2,1-b][1,3]oxazol-5-yl]pyrimidin-2-amine]	–	42
Cc1ccccc1-c1nc2occn2c1-c1ccnc(NC2CCNCC2)n1 [Example 304, 4-[6-(2-methylphenyl)imidazo[2,1-b][1,3]oxazol-5-yl]-N-piperidin-4-ylpyrimidin-2-amine]	–	56
CC(=O)N1CCC(Nc2nccc(-c3c(-c4ccc(F)cc4Cl)nc4occn34)n2)CC1 [Example 305, N-(1-acetylpiperidin-4-yl)-4-[6-(2-chloro-4-fluorophenyl)imidazo[2,1-b][1,3]oxazol-5-yl]pyrimidin-2-amine]	–	47
FC(F)(F)c1cccc(-c2nc3occn3c2-c2ccnc(NC3CCNCC3)n2)c1 [Example 306, N-piperidin-4-yl-4-{6-[3-(trifluoromethyl)phenyl]imidazo[2,b][1,3]oxazol-5-yl}pyrimidin-2-amine]	–	32
Clc1ccccc1-c1nc2occn2c1-c1ccnc(NC2CCNCC2)n1 [Example 307, 4-[6-(2-chlorophenyl)imidazo[2,1-b][1,3]oxazol-5-yl]-N-piperidin-4-ylpyrimidin-2-amine]	–	55
Cc1ccccc1-c1nc2occn2c1-c1ccnc(NC2CCN(S(C)(=O)=O)CC2)n1 [Example 308, 4-[6-(2-methylphenyl)imidazo[2,1-b][1,3]oxazol-5-yl]-N-(1-(methylsulfonyl)piperidin-4-yl]pyrimidin-2-amine]	–	45
CS(=O)(=O)N1CCC(Nc2nccc(-c3c(-c4cccc(C(F)(F)F)c4)nc4occn34)n2)CC1 [Example 309, N-[1-(methylsulfonyl)piperidin-4-yl]-4-{6-(3-(trifluoromethyl)phenyl]imidazo[2,b][1,3]oxazol-5-yl)pyrimidin-2-amine]	–	33
CC(=O)N1CCC(Nc2nccc(-c3c(-c4ccc(F)cc4F)nc4occn34)n2)CC1 [Example 310, N-(1-acetylpiperidin-4-yl)-4-[6-(2,4-difluorophenyl)imidazo[2,1-b][1,3]oxazol-5-yl]pyrimidin-2-amine]	–	33
CS(=O)(=O)N1CCC(Nc2nccc(-c3c(-c4ccccc4Cl)nc4occn34)n2)CC1 [Example 311, 4-[6-(2-chlorophenyl)imidazo[2,1-b][1,3]oxazol-5-yl]-N-[1-(methylsulfonyl)piperidin-4-yl]pyrimidin-2-amine]	–	61
CS(=O)(=O)N1CCC(Nc2nccc(-c3c(-c4ccc(F)cc4Cl)nc4occn34)n2)CC1 [Example 312, 4-[6-(2-chloro-4-fluorophenyl)imidazo[2,1-b][1,3]oxazol-5-yl]-N-[1-(methylsulfonyl)piperidin-4-yl]pyrimidin-2-amine]	–	73
